Patent US8354522B2, “Immunostimulatory oligoribonucleotides” (Coley Pharmaceutical GmbH, priority 2005, dated 2013)

How the values were obtained:
Type in all cases: cell-based
human TLR8 = target: T1, human TLR8 (Homo sapiens, UniProt Q9NR97); experiment: NFκB-luciferase reporter in HEK-293 cells stably transfected with human TLR8; details: HEK-293 with human TLR8, ORN complexed to DOTAP, 16 hours
T1 construct: expressed in transfected cells
T1 sequence (Q9NR97 27-1041): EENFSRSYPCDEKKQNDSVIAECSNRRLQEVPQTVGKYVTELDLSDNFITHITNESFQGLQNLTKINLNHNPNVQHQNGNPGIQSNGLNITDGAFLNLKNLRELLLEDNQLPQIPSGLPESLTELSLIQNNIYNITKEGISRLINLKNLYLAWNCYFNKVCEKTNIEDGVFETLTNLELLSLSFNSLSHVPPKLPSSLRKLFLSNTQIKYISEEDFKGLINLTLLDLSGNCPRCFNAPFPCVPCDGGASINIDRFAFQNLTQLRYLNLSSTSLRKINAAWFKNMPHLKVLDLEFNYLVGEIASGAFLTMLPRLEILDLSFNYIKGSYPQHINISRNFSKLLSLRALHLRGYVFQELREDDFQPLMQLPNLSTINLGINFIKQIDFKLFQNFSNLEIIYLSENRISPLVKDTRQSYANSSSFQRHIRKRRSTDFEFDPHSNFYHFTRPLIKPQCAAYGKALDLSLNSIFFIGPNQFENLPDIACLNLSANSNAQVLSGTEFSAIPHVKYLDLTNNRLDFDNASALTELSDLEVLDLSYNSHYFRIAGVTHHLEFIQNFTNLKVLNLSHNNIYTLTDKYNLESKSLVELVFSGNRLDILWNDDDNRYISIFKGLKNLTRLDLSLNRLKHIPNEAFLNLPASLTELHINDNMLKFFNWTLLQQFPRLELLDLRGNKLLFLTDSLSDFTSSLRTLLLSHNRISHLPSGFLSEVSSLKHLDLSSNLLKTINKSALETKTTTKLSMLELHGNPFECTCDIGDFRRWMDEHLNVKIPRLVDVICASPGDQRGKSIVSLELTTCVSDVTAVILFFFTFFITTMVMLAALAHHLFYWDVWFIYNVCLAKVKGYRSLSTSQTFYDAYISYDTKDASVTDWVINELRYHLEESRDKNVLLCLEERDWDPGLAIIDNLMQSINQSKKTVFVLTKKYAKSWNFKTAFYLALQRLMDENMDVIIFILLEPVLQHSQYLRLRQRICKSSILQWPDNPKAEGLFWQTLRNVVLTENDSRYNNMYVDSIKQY
Protocol: Stable-transfected HEK-293 cells with NFκB-luciferase read out reporter and human TLR8 were stimulated for 16 hours with indicated ORN. After 16 hours the supernatants were removed, the cells lysed and the luciferase activity or cytokine level was measured. FIGS. 9a and 9b show fold induction of NFκB-luciferase after stimulus.
Unresponsive HEK-293 cells were stably transfected with human TLR3 or TLR8 expression plasmid and NFκB-luciferase reporter gene construct. Cells were incubated with the indicated ORN sequences (10 μM complexed to 50 μg/ml DOTAP) or control stimuli (10 μM R-848, 50 μg/ml polyIC, 3.3 μM ODN 10103 or 50 μg/ml DOTAP) for 16 hours. NFκB-activation was measured by assaying luciferase activity. Results are given as fold induction above background (medium). One representative experiment of 6 independent repetitions is presented (FIG. 9a).
Stable-transfected HEK-293 cells expressing human TLR8 were stimulated with indicated concentrations of ORN complexed to DOTAP (50 μg/ml->1/3 dilution) or DOTAP alone (50 μg/ml->1/3 dilution) for 16 hours. NFκB activation was measured by assaying luciferase activity. Results are given as fold induction above background (medium). […]
Unresponsive HEK-293 cells were stably transfected with human TLR8 expression plasmid and NFκB-luciferase reporter gene construct. […] NFκB-activation was measured by assaying luciferase activity. […]

[1] = tested on: Splenocytes from 3 Sprague-Dawley rats; experiment: TNF-alpha production by rat splenocytes (ELISA); details: pooled rat splenocytes, ORN complexed to 62.5 μg/ml DOTAP with 1/5 dilution, 20 hours
Protocol: Splenocytes from 3 Sprague-Dawley rats were pooled and stimulated with indicated concentrations of SEQ ID NO:21, SEQ ID NO:13 (both complexed to 62.5 μg/ml DOTAP with 1/5 dilution), R-848 or DOTAP alone (62.5 μg/ml->1/5 dilution). Supernatants were harvested after 20 hours and TNF-alpha levels were measured by ELISA.

Bovine PBMC = experiment: Cytokine production by bovine PBMC (48 hours, ELISA); details: 10 μg/ml (H.D.) and 2.5 μg/ml (L.D.)
Protocol: FIG. 11 is a set of bar graphs showing differences between TLR8 ORN (SEQ ID NO:13) and TLR7/8 ORN (SEQ ID NO:21). SEQ ID NO:5 ORN was used as a control. Bovine PBMC were incubated with either 10 μg/ml ORN (HD) or 2.5 μg/ml ORN (LD) for 48 hours. Supernatants were collected and analyzed by ELISA. FIGS. 11a-c show the level of IL-12, IFN-γ, and TNF-alpha, respectively.
The assay was repeated with a TLR8 ORN (SEQ ID NO:13), a TLR 7/8 ORN (SEQ ID NO:21) and a control ORN (SEQ ID NO:5) (Table 3) at both a high dose (H.D., 10 μg/ml) and a low dose (L.D., 2.5 μg/ml).

Substance | human TLR8 signaling (NFκB-luciferase fold induction) (human TLR8) | TNF-alpha production [1] | IFN-γ production (Bovine PBMC) | IL-12 production (Bovine PBMC) | TNF-alpha production (Bovine PBMC)
U*U*A*U*U*A*U*U*A*U*U*A*U*U*A*U*U*A*U*U (UUAUUAUUAUUAUUAUUAUU; chemistry not fully specified) [SEQ ID NO: 13] | Stimulate Specific Human TLR8 Signaling in a Dose Dependent Manner | no TNF-alpha production | stimulated production of IFN-γ | – | –
U*U*G*U*U*G*U*U*G*U*U*G*U*U*G*U*U*G*U*U (UUGUUGUUGUUGUUGUUGUU; listed as RNA, chemistry not fully specified) [SEQ ID NO: 21] | Stimulate Specific Human TLR8 Signaling in a Dose Dependent Manner | resulted in TNF-alpha production | stimulated production of IFN-γ | significant production of IL-12 and TNF-alpha | significant production of IL-12 and TNF-alpha
